Reference: PubChem BioAssay AID2060617 (Molecular Pharmacology Branch, DTP, NCI, 2025)
Where “and” joins values, the source holds several entries; their conditions need not be identical. Identical values can stand only once.

Tested on: 485368-065-R4-J2-PDC spheroids with HUVEC/MSC, viability
Experiment: Anticancer human tumor 485368-065-R4-J2-PDC patient-derived pancreatic carcinoma cell line growth inhibition [CLK]
Conditions: for viability, T/C: stronger effect = lower value
Procedure, shortened: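 Multi-cell-type spheroids combined patient-derived tumor cells with HUVEC endothelial cells and human mesenchymal stem cells. Paired agents were dosed in half-log steps down from about clinical Cmax, or from 10 microM where Cmax was unknown.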

[1] = curve of first compound, second compound 0.0316 µM
[2] = curve of first compound, second compound 0.1 µM
[3] = curve of first compound, second compound 0.316 µM
[4] = curve of first compound, second compound 1 µM
[5] = curve of first compound, second compound 3.16 µM
[6] = curve of first compound, second compound 10 µM
[7] = second compound 0.0316 µM, first compound 0.0316 µM
[8] = second compound 0.0316 µM, first compound 0.1 µM
[9] = second compound 0.1 µM, first compound 0.0316 µM
[10] = second compound 0.1 µM, first compound 0.1 µM
[11] = second compound 0.316 µM, first compound 0.0316 µM
[12] = second compound 0.316 µM, first compound 0.1 µM
[13] = second compound 1 µM, first compound 0.0316 µM
[14] = second compound 1 µM, first compound 0.1 µM
[15] = second compound 3.16 µM, first compound 0.0316 µM
[16] = second compound 3.16 µM, first compound 0.1 µM
[17] = second compound 10 µM, first compound 0.0316 µM
[18] = second compound 10 µM, first compound 0.1 µM
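Also: spheroids exposed to compounds for seven days.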
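For viability, T/C in this document: 100% = DMSO vehicle control wells.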

Cn1ncnc1[C@H]1c2n[nH]c(=O)c3cc(F)cc(c23)N[C@@H]1c1ccc(F)cc1 + CN1CCN(c2cc(C(=O)Nc3cc4cc(-c5cnn(C)c5)ccc4cn3)ccn2)CC1
IC50 [1]: > 100 nM | IC50 [2]: > 100 nM | IC50 [3]: 88.6 nM | IC50 [4]: < 0.316 nM | IC50 [5]: < 0.316 nM | IC50 [6]: < 0.316 nM | viability, T/C (second compound 0.0316 µM, first compound 0.000316 µM): 99.9% | viability, T/C (second compound 0.0316 µM, first compound 0.001 µM): 107% | viability, T/C (second compound 0.0316 µM, first compound 0.00316 µM): 105% | viability, T/C (second compound 0.0316 µM, first compound 0.01 µM): 105% | viability, T/C [7]: 109% | viability, T/C [8]: 88.7% | viability, T/C (second compound 0.1 µM, first compound 0.000316 µM): 108% | viability, T/C (second compound 0.1 µM, first compound 0.001 µM): 112% | viability, T/C (second compound 0.1 µM, first compound 0.00316 µM): 119% | viability, T/C (second compound 0.1 µM, first compound 0.01 µM): 109% | viability, T/C [9]: 96.6% | viability, T/C [10]: 75.9% | viability, T/C (second compound 0.316 µM, first compound 0.000316 µM): 85.2% | viability, T/C (second compound 0.316 µM, first compound 0.001 µM): 87.8% | viability, T/C (second compound 0.316 µM, first compound 0.00316 µM): 84.1% | viability, T/C (second compound 0.316 µM, first compound 0.01 µM): 72.2% | viability, T/C [11]: 55.9% | viability, T/C [12]: 49.2% | viability, T/C (second compound 1 µM, first compound 0.000316 µM): 1.46% | viability, T/C (second compound 1 µM, first compound 0.001 µM): 0.88% | viability, T/C (second compound 1 µM, first compound 0.00316 µM): 1.83% | viability, T/C (second compound 1 µM, first compound 0.01 µM): 0.77% | viability, T/C [13]: 1.6% | viability, T/C [14]: 1.69% | viability, T/C (second compound 3.16 µM, first compound 0.000316 µM): 1% | viability, T/C (second compound 3.16 µM, first compound 0.001 µM): 1.76% | viability, T/C (second compound 3.16 µM, first compound 0.00316 µM): 0.88% | viability, T/C (second compound 3.16 µM, first compound 0.01 µM): 1.07% | viability, T/C [15]: 1.7% | viability, T/C [16]: 1.76% | viability, T/C (second compound 10 µM, first compound 0.000316 µM): 2.24% | viability, T/C (second compound 10 µM, first compound 0.001 µM): 1.19% | viability, T/C (second compound 10 µM, first compound 0.00316 µM): 1.54% | viability, T/C (second compound 10 µM, first compound 0.01 µM): 2.1% | viability, T/C [17]: 2.02% | viability, T/C [18]: 1.77%

CC(C)CC(NC(=O)C(Cc1ccccc1)NC(=O)c1cnccn1)B(O)O (stereo not drawn)
viability, T/C (compound 0.000949 µM): 89.2% and 97.4% | viability, T/C (compound 0.003 µM): 109% and 134% | viability, T/C (compound 0.00949 µM): 31.1% | viability, T/C (compound 0.03 µM): 23.3% and 18.4% | viability, T/C (compound 0.0949 µM): 12.5% and 15.6% | viability, T/C (compound 0.3 µM): 5.93% and 5.56% | IC50 (curve of compound): 6.88 nM and 7.33 nM

C=CC(=O)Nc1cc(Nc2nccc(-c3cn(C)c4ccccc34)n2)c(OC)cc1N(C)CCN(C)C + CN1CCN(c2cc(C(=O)Nc3cc4cc(-c5cnn(C)c5)ccc4cn3)ccn2)CC1
IC50 [1]: > 300 nM | IC50 [2]: > 300 nM | IC50 [3]: > 300 nM | IC50 [4]: < 0.949 nM | IC50 [5]: < 0.949 nM | IC50 [6]: < 0.949 nM | viability, T/C (second compound 0.0316 µM, first compound 0.000949 µM): 106% | viability, T/C (second compound 0.0316 µM, first compound 0.003 µM): 113% | viability, T/C (second compound 0.0316 µM, first compound 0.00949 µM): 99.1% | viability, T/C (second compound 0.0316 µM, first compound 0.03 µM): 101% | viability, T/C (second compound 0.0316 µM, first compound 0.0949 µM): 103% | viability, T/C (second compound 0.0316 µM, first compound 0.3 µM): 100% | viability, T/C (second compound 0.1 µM, first compound 0.000949 µM): 114% | viability, T/C (second compound 0.1 µM, first compound 0.003 µM): 113% | viability, T/C (second compound 0.1 µM, first compound 0.00949 µM): 112% | viability, T/C (second compound 0.1 µM, first compound 0.03 µM): 113% | viability, T/C (second compound 0.1 µM, first compound 0.0949 µM): 105% | viability, T/C (second compound 0.1 µM, first compound 0.3 µM): 103% | viability, T/C (second compound 0.316 µM, first compound 0.000949 µM): 75.7% | viability, T/C (second compound 0.316 µM, first compound 0.003 µM): 83.8% | viability, T/C (second compound 0.316 µM, first compound 0.00949 µM): 84.6% | viability, T/C (second compound 0.316 µM, first compound 0.03 µM): 85.3% | viability, T/C (second compound 0.316 µM, first compound 0.0949 µM): 82.7% | viability, T/C (second compound 0.316 µM, first compound 0.3 µM): 74.2% | viability, T/C (second compound 1 µM, first compound 0.000949 µM): 1.06% | viability, T/C (second compound 1 µM, first compound 0.003 µM): 1.02% | viability, T/C (second compound 1 µM, first compound 0.00949 µM): 0.96% | viability, T/C (second compound 1 µM, first compound 0.03 µM): 0.9% | viability, T/C (second compound 1 µM, first compound 0.0949 µM): 1.6% | viability, T/C (second compound 1 µM, first compound 0.3 µM): 0.54% | viability, T/C (second compound 3.16 µM, first compound 0.000949 µM): 1.42% | viability, T/C (second compound 3.16 µM, first compound 0.003 µM): 2.3% | viability, T/C (second compound 3.16 µM, first compound 0.00949 µM): 1.16% | viability, T/C (second compound 3.16 µM, first compound 0.03 µM): 2.05% | viability, T/C (second compound 3.16 µM, first compound 0.0949 µM): 2.29% | viability, T/C (second compound 3.16 µM, first compound 0.3 µM): 2.5% | viability, T/C (second compound 10 µM, first compound 0.000949 µM): 1.61% | viability, T/C (second compound 10 µM, first compound 0.003 µM): 3.07% | viability, T/C (second compound 10 µM, first compound 0.00949 µM): 1.3% | viability, T/C (second compound 10 µM, first compound 0.03 µM): 1.38% | viability, T/C (second compound 10 µM, first compound 0.0949 µM): 2.42% | viability, T/C (second compound 10 µM, first compound 0.3 µM): 2.16%

CC(CO)NC(=O)c1cc(-c2ccc(Cl)cc2)nn(-c2cnn(C)c2)c1=O (stereo not drawn) + CN1CCN(c2cc(C(=O)Nc3cc4cc(-c5cnn(C)c5)ccc4cn3)ccn2)CC1
IC50 [1]: > 10000 nM | IC50 [2]: > 10000 nM | IC50 [3]: > 10000 nM | IC50 [4]: < 31.6 nM | IC50 [5]: < 31.6 nM | IC50 [6]: < 31.6 nM | viability, T/C [7]: 91.7% | viability, T/C [8]: 106% | viability, T/C (second compound 0.0316 µM, first compound 0.316 µM): 99.8% | viability, T/C (second compound 0.0316 µM, first compound 1 µM): 105% | viability, T/C (second compound 0.0316 µM, first compound 3.16 µM): 104% | viability, T/C (second compound 0.0316 µM, first compound 10 µM): 101% | viability, T/C [9]: 114% | viability, T/C [10]: 116% | viability, T/C (second compound 0.1 µM, first compound 0.316 µM): 108% | viability, T/C (second compound 0.1 µM, first compound 1 µM): 116% | viability, T/C (second compound 0.1 µM, first compound 3.16 µM): 105% | viability, T/C (second compound 0.1 µM, first compound 10 µM): 99.3% | viability, T/C [11]: 87.2% | viability, T/C [12]: 87.9% | viability, T/C (second compound 0.316 µM, first compound 0.316 µM): 91% | viability, T/C (second compound 0.316 µM, first compound 1 µM): 82.5% | viability, T/C (second compound 0.316 µM, first compound 3.16 µM): 78.1% | viability, T/C (second compound 0.316 µM, first compound 10 µM): 79.1% | viability, T/C [13]: 1.07% | viability, T/C [14]: 2.15% | viability, T/C (second compound 1 µM, first compound 0.316 µM): 1.7% | viability, T/C (second compound 1 µM, first compound 1 µM): 1.69% | viability, T/C (second compound 1 µM, first compound 3.16 µM): 1.72% | viability, T/C (second compound 1 µM, first compound 10 µM): 2.66% | viability, T/C [15]: 2.09% | viability, T/C [16]: 1.46% | viability, T/C (second compound 3.16 µM, first compound 0.316 µM): 1.34% | viability, T/C (second compound 3.16 µM, first compound 1 µM): 1.32% | viability, T/C (second compound 3.16 µM, first compound 3.16 µM): 1.45% | viability, T/C (second compound 3.16 µM, first compound 10 µM): 3.08% | viability, T/C [17]: 1.44% | viability, T/C [18]: 4.18% | viability, T/C (second compound 10 µM, first compound 0.316 µM): 1.35% | viability, T/C (second compound 10 µM, first compound 1 µM): 1.26% | viability, T/C (second compound 10 µM, first compound 3.16 µM): 2.31% | viability, T/C (second compound 10 µM, first compound 10 µM): 1.01%
